Reference: patent US20260217651A1 (priority 2022, published 2026)
Where two headings read alike, the source gives them in different places.

What was measured:
[1] = tested on: SD rats; assay: animal or person; assay type: in vivo, rat; details: iv; for minimal effective dose: Rattus norvegicus, read-out: Minimal effective anesthetic dose(mg/kg); for Onset time / Righting Reflex Duration / Sedation Duration / Minimal effective anesthetic dose(mg/kg): rat, in vivo
[2] = tested on: SD rats; assay: animal or person; assay type: in vivo; details: Rattus norvegicus, iv, read-out: Minimal effective analgesic dose(mg/kg)

| SMILES | minimal effective dose [1] | Onset time [1] | Righting Reflex Duration [1] | Sedation Duration [1] | minimal effective dose [2] | Minimal effective anesthetic dose(mg/kg) [1] |
| --- | --- | --- | --- | --- | --- | --- |
| CCC(=O)N(c1cc(C(C)C)c(O)c([C@H](C)C2CC2)c1)N1CCN(CCC(=O)OC)CC1 [Cpd-50] | 20 to 40 mg/kg | 1.03 min | 1.47 min | 66.48 min |  |  |
| CCCOc1ccc(N(C(=O)OCC)N2CCN(c3cc(C(C)C)c(O)c(C(C)C)c3)CC2)cc1 [Cpd-99] | 10 to 20 mg/kg | 1.03 to 1.38 min | 25.58 to 25.87 min | 67.73 to 88.57 min | 10 to 20 mg/kg |  |
| CCOC(=O)N(c1cccc(C#N)c1)N1CCN(c2cc(C(C)C)c(O)c(C(C)C)c2)CC1 [Cpd-95] | 20 to 40 mg/kg | 0.72 min | 13.75 min | 54.33 min |  |  |
| CC(C)c1cc(N2CCC(C(=O)OC(C)(C)C)CC2)cc([C@H](C)C2CC2)c1O [Cpd-85-1] | < 5 mg/kg | 0.40 to 1.33 min | 1.38 to 29.00 min | 20.97 to 44.48 min |  |  |
| CCOC(=O)C1(c2ccc(F)cc2F)CCN(c2cc(C(C)C)c(O)c(C(C)C)c2)CC1 [Cpd-27] | 20 to 40 mg/kg | 1.47 min | 36.80 min | 67.40 min |  |  |
| CC(C)OC(=O)N(c1ccccc1)C1CCN(c2cc(C(C)C)c(O)c(C(C)C)c2)CC1 [Cpd-15] | 5 to 10 mg/kg | 0.67 min | 16.28 min | 29.90 min |  |  |
| CCOC(=O)N(c1ccc(OC)c(Br)c1)N1CCN(c2cc(C(C)C)c(O)c(C(C)C)c2)CC1 [Cpd-103] | 20 to 40 mg/kg | 0.15 min | 14.85 min | 107.67 min |  |  |
| COC(=O)CN1CCN(Cc2cc(C(C)C)c(O)c([C@H](C)C3CC3)c2)CC1 [Cpd-78-1] | 5 to 10 mg/kg | 0.62 min | 2.73 min | 22.58 min |  |  |
| CCC(=O)N(CC1CCN(c2cc(C(C)C)c(O)c(C(C)C)c2)CC1)c1ccccc1 [Cpd-32] | 5 to 10 mg/kg | 0.52 min | 2.67 min | 19.68 min |  |  |
| COC(=O)C1CCN(c2cc(C(C)C)c(O)c([C@H](C)C3CC3)c2)CC1 [Cpd-84-1] | < 5 mg/kg | 0.43 to 0.77 min | 0.77 to 4.62 min | 5.72 to 10.28 min |  |  |
| C=C[C@@H](C)c1cc(N2CCN(CC(=O)OC)CC2)cc(C(C)C)c1O [Cpd-89] | 10 to 20 mg/kg | 0.18 min | 0.88 min | 22.78 min |  |  |
| CCOC(=O)C1(c2cccc(Cl)c2)CCN(c2cc(C(C)C)c(O)c(C(C)C)c2)CC1 [Cpd-37] | 5 to 10 mg/kg | 2.63 min | 0.65 min | 21.73 min |  |  |
| CC(C)c1cc(N2CCC(CC(=O)OC(C)(C)C)CC2)cc([C@H](C)C2CC2)c1O [Cpd-81] | < 5 mg/kg | 0.18 to 0.75 min | 9.28 to 40.37 min | 27.22 to 57.86 min |  |  |
| CCOC(=O)N(c1ccc(C)cc1)N1CCN(c2cc(C(C)C)c(O)c([C@H](C)C3CC3)c2)CC1 [Cpd-74] | 20 to 40 mg/kg | 0.50 min | 26.28 min | 69.23 min |  |  |
| CC(=O)N(c1ccccc1)C1CCN(c2cc(C(C)C)c(O)c(C(C)C)c2)CC1 [Cpd-12] | 10 to 20 mg/kg | 0.45 min | 6.85 min | 55.12 min |  |  |
| COC(=O)CN(c1ccccc1)C1CCN(c2cc(C(C)C)c(O)c(C(C)C)c2)CC1 [Cpd-10] | 5 to 10 mg/kg | 0.42 to 0.45 min | 6.47 to 27.50 min | 47.22 to 66.70 min |  |  |
| CCC(=O)N(C1CC1)C1CCN(c2cc(C(C)C)c(O)c(C(C)C)c2)CC1 [Cpd-5] | 5 to 10 mg/kg | 0.45 min | 6.40 min | 17.12 min |  |  |
| CCOC(=O)C1(c2ccccn2)CCN(c2cc(C(C)C)c(O)c(C(C)C)c2)CC1.Cl [Cpd-23] | 10 to 20 mg/kg | 0.53 min | 13.95 min | 41.02 min |  |  |
| CCOC(=O)N(c1ccc(OC)c(F)c1)N1CCN(c2cc(C(C)C)c(O)c(C(C)C)c2)CC1 [Cpd-101] | 10 to 20 mg/kg | 0.70 to 0.73 min | 2.05 to 2.58 min | 38.73 to 57.17 min |  |  |
| CCOC(=O)N(c1cccc(Cl)c1)N1CCN(c2cc(C(C)C)c(O)c([C@@H](C)C3CC3)c2)CC1 [Cpd-106] | 10 to 20 mg/kg | 1.55 to 1.60 min | 3.35 to 24.10 min | 98.82 to 103.67 min |  |  |

| SMILES | minimal effective dose [1] | Onset time [1] | Righting Reflex Duration [1] | Sedation Duration [1] | minimal effective dose [2] | Minimal effective anesthetic dose(mg/kg) [1] |
| --- | --- | --- | --- | --- | --- | --- |
| CCOC(=O)N(Cc1cccc(Cl)c1)N1CCN(c2cc(C(C)C)c(O)c(C(C)C)c2)CC1 [Cpd-127] | 5 to 10 mg/kg | 0.55 min | 21.20 min | 71.18 min |  |  |
| COC(=O)CC1CCN(c2cc(C(C)C)c(O)c([C@H](C)C3CC3)c2)CC1 [Cpd-80] | < 5 mg/kg | 0.17 to 0.97 min | 1.50 to 12.97 min | 10.17 to 28.53 min |  |  |
| CC(C)C(=O)N(c1ccccc1)C1CCN(c2cc(C(C)C)c(O)c(C(C)C)c2)CC1 [Cpd-14] | 5 to 10 mg/kg | 0.48 min | 17.60 min | 42.83 min |  |  |
| COC(=O)CN1CC=C(c2cc(C(C)C)c(O)c([C@H](C)C3CC3)c2)CC1 [Cpd-86] | < 5 mg/kg | 0.17 to 0.20 min | 1.15 to 10.33 min | 16.40 to 19.62 min |  |  |
| CCOC(=O)N(c1ccccc1)N1CCN(c2cc(C(C)C)c(O)c([C@H](C)C3CC3)c2)CC1 [Cpd-59] | 10 to 20 mg/kg | 0.37 to 0.85 min | 21.18 to 24.15 min | 37.27 to 47.68 min |  |  |
| COC(=O)CC1CCN(Cc2cc(C(C)C)c(O)c([C@H](C)C3CC3)c2)CC1 [Cpd-77] | < 5 mg/kg | 1.00 to 1.80 min | 0.67 to 1.95 min | 5.00 to 22.33 min |  |  |
| CCOC(=O)C1(c2ccccc2F)CCN(c2cc(C(C)C)c(O)c(C(C)C)c2)CC1 [Cpd-34] | 10 to 20 mg/kg | 0.88 min | 10.28 min | 29.75 min |  |  |
| COC(=O)CN(C1CC1)C1CCN(c2cc(C(C)C)c(O)c(C(C)C)c2)CC1 [Cpd-8] | 5 to 10 mg/kg | 0.40 min | 7.73 min | 17.93 min |  |  |
| COC(=O)N(c1ccccc1)C1CCN(c2cc(C(C)C)c(O)c(C(C)C)c2)CC1 [Cpd-3] | < 5 mg/kg | 0.20 to 0.67 min | 5.83 to 22.20 min | 24.65 to 38.02 min |  |  |
| COC(=O)C1CCN(c2cc(C(C)C)c(O)c([C@H](C)C3CC3)c2)CC1 [Cpd-84] |  | 0.30 to 0.75 min | 1.10 to 17.23 min | 18.08 to 35.02 min |  | A (key: A≤5 mg/kg; 5 mg/kg<B≤10 mg/kg; 10 mg/kg<C≤20 mg/kg; 20 mg/kg<D≤40 mg/k; E>40 mg/kg) |
| CCOC(=O)N(c1ccccc1)N1CCN(c2cc(C(C)C)c(O)c(C(C)C)c2)CC1 [Cpd-51] | 5 to 10 mg/kg | 0.65 to 0.97 min | 2.52 to 14.47 min | 22.27 to 35.75 min |  |  |
| CCOC(=O)N(c1cccc(OC)c1)N1CCN(c2cc(C(C)C)c(O)c([C@H](C)C3CC3)c2)CC1 [Cpd-71] | 10 to 20 mg/kg | 0.55 min | 17.52 min | 37.65 min |  |  |
| CCOC(=O)N(c1cccc(C)c1)N1CCN(c2cc(C(C)C)c(O)c(C(C)C)c2)CC1 [Cpd-62] | 10 to 20 mg/kg | 1.15 to 2.15 min | 1.22 to 17.28 min | 55.48 to 85.02 min |  |  |
| COC(=O)CN1CCC(N(CC(=O)OC)c2cc(C(C)C)c(O)c([C@H](C)C3CC3)c2)CC1 [Cpd-87] | 10 to 20 mg/kg | 0.42 min | 1.85 min | 19.32 min |  |  |
| CCOC(=O)N(c1ccc(F)cc1)N1CCN(c2cc(C(C)C)c(O)c(C(C)C)c2)CC1 [Cpd-64] | 10 to 20 mg/kg | 0.43 to 0.47 min | 3.70 to 7.22 min | 26.92 to 42.58 min |  |  |
| CCC(=O)N(c1ccccc1)C1CCN(c2cc(C(C)C)c(O)c([C@H](C)C3CC3)c2)CC1 [Cpd-18] | 5 to 10 mg/kg | 0.20 to 0.57 min | 5.55 to 20.30 min | 26.77 to 47.53 min |  |  |
| CC(C)c1cc(N2CCC(C(=O)OC(C)(C)C)CC2)cc([C@H](C)C2CC2)c1O [Cpd-85] |  | 0.18 to 0.55 min | 1.28 to 4.92 min | 5.05 to 15.13 min |  | A (key: A≤5 mg/kg; 5 mg/kg<B≤10 mg/kg; 10 mg/kg<C≤20 mg/kg; 20 mg/kg<D≤40 mg/k; E>40 mg/kg) |
| COC(=O)CCC1CCN(c2cc(C(C)C)c(O)c([C@H](C)C3CC3)c2)CC1 [Cpd-82] | < 5 mg/kg | 0.17 to 0.52 min | 0.87 to 3.42 min | 3.67 to 13.02 min |  |  |
| CC(C)OC(=O)N(c1ccccc1)N1CCN(c2cc(C(C)C)c(O)c(C(C)C)c2)CC1 [Cpd-52] | 5 to 10 mg/kg | 0.52 to 0.98 min | 13.92 to 16.42 min | 28.53 to 94.30 min |  |  |
| CCOC(=O)N(Cc1ccoc1)N1CCN(c2cc(C(C)C)c(O)c(C(C)C)c2)CC1 [Cpd-126] | 10 to 20 mg/kg | 0.42 min | 14.90 min | 21.85 min |  |  |
